According to publication PMC10722513:

Assay: Au(I)-catalysed intramolecular Trp C2-H alkynylation: peptide-EBX (4-ethynylbenzoyl bis-CF3-benziodoxole on Lys side chain or N-terminus) + AuCl·Me2S, open flask
Conditions: HFIP, 5.0 mM, 25.0 °C, 0.17 h

CC(=O)N[C@H]1CCCCNC(=O)c2ccc(cc2)C#Cc2[nH]c3ccccc3c2C[C@@H](C(=O)O)NC(=O)[C@H](Cc2ccccc2)NC(=O)[C@H](C)NC(=O)[C@H](CC(=O)O)NC1=O [Ac-K(EBX)-D-A-F-W-OH] showed a ring closure, isolated yield (from CC(=O)N[C@@H](CCCCNC(=O)c1ccc(C#CI2OC(C(F)(F)F)(C(F)(F)F)c3ccccc32)cc1)C(=O)N[C@@H](CC(=O)O)C(=O)N[C@@H](C)C(=O)N[C@@H](Cc1ccccc1)C(=O)N[C@@H](Cc1c[nH]c2ccccc12)C(=O)O, 28-membered ring) of 51%.

With N=C(N)NCCC[C@@H]1NC(=O)[C@H](CCCNC(=N)N)NC(=O)[C@H](CCCNC(=N)N)NC(=O)[C@H](CCCNC(=N)N)NC(=O)[C@H](Cc2ccc3ccccc3c2)NC(=O)[C@H](Cc2ccccc2)NC(=O)c2ccc(cc2)C#Cc2[nH]c3ccccc3c2C[C@@H](C(N)=O)NC1=O [EBX-F-Nal(2)-R-R-R-R-W-NH2] the ring closure, isolated yield (from N=C(N)NCCC[C@H](NC(=O)[C@H](CCCNC(=N)N)NC(=O)[C@H](CCCNC(=N)N)NC(=O)[C@H](CCCNC(=N)N)NC(=O)[C@H](Cc1ccc2ccccc2c1)NC(=O)[C@H](Cc1ccccc1)NC(=O)c1ccc(C#CI2OC(C(F)(F)F)(C(F)(F)F)c3ccccc32)cc1)C(=O)N[C@@H](Cc1c[nH]c2ccccc12)C(N)=O, 30-membered ring) was 57%.

Work on CC(=O)N[C@H]1CCCCNC(=O)c2ccc(cc2)C#Cc2[nH]c3ccccc3c2C[C@@H](C(=O)O)NC(=O)[C@H](Cc2ccccc2)NC(=O)[C@H](C)NC(=O)[C@H](CCC(=O)O)NC1=O [Ac-K(EBX)-E-A-F-W-OH] yielded a ring closure, isolated yield (from CC(=O)N[C@@H](CCCCNC(=O)c1ccc(C#CI2OC(C(F)(F)F)(C(F)(F)F)c3ccccc32)cc1)C(=O)N[C@@H](CCC(=O)O)C(=O)N[C@@H](C)C(=O)N[C@@H](Cc1ccccc1)C(=O)N[C@@H](Cc1c[nH]c2ccccc12)C(=O)O, 28-membered ring) of 37%.

Compound C[C@@H]1NC(=O)[C@H](CC(=O)O)NC(=O)c2ccc(cc2)C#Cc2c(c3ccccc3n2C)C[C@@H](C(N)=O)NC(=O)[C@H](CCC(=O)O)NC(=O)CNC(=O)[C@H]([C@@H](C)O)NC(=O)[C@H](CCC(=O)O)NC1=O [EBX-D-A-E-T-G-E-W(1-Me)-NH2] has a ring closure, isolated yield (from C[C@H](NC(=O)[C@H](CC(=O)O)NC(=O)c1ccc(C#CI2OC(C(F)(F)F)(C(F)(F)F)c3ccccc32)cc1)C(=O)N[C@@H](CCC(=O)O)C(=O)N[C@H](C(=O)NCC(=O)N[C@@H](CCC(=O)O)C(=O)N[C@@H](Cc1cn(C)c2ccccc12)C(N)=O)[C@@H](C)O, 30-membered ring) of 86%.

CC(=O)N[C@H]1CCCCNC(=O)c2ccc(cc2)C#Cc2[nH]c3ccccc3c2C[C@@H](C(=O)O)NC(=O)[C@H](Cc2ccccc2)NC(=O)[C@H](C)NC(=O)[C@H](CC(N)=O)NC1=O [Ac-K(EBX)-N-A-F-W-OH] gave a ring closure, isolated yield (from CC(=O)N[C@@H](CCCCNC(=O)c1ccc(C#CI2OC(C(F)(F)F)(C(F)(F)F)c3ccccc32)cc1)C(=O)N[C@@H](CC(N)=O)C(=O)N[C@@H](C)C(=O)N[C@@H](Cc1ccccc1)C(=O)N[C@@H](Cc1c[nH]c2ccccc12)C(=O)O, 28-membered ring) of 52%.

CC(=O)N[C@H](C(=O)N[C@@H](CO)C(=O)N[C@@H](Cc1ccccc1)C(=O)N[C@H]1CCCCNC(=O)c2ccc(cc2)C#Cc2[nH]c3ccccc3c2C[C@@H](C(=O)N[C@@H](C)C(=O)N[C@@H](CC(C)C)C(=O)N[C@@H](CC(C)C)C(=O)N[C@@H](Cc2c[nH]c3ccccc23)C(N)=O)NC(=O)[C@H](Cc2ccc(O)cc2)NC(=O)[C@H](CCC(=O)O)NC1=O)[C@@H](C)O [Ac-T-S-F-K(EBX)-E-Y-W-A-L-L-W-NH2] gave a ring closure, isolated yield (from CC(=O)N[C@H](C(=O)N[C@@H](CO)C(=O)N[C@@H](Cc1ccccc1)C(=O)N[C@@H](CCCCNC(=O)c1ccc(C#CI2OC(C(F)(F)F)(C(F)(F)F)c3ccccc32)cc1)C(=O)N[C@@H](CCC(=O)O)C(=O)N[C@@H](Cc1ccc(O)cc1)C(=O)N[C@@H](Cc1c[nH]c2ccccc12)C(=O)N[C@@H](C)C(=O)N[C@@H](CC(C)C)C(=O)N[C@@H](CC(C)C)C(=O)N[C@@H](Cc1c[nH]c2ccccc12)C(N)=O)[C@@H](C)O, 25-membered ring) of 45%.

Compound CC(=O)N[C@H]1CCCCNC(=O)c2ccc(cc2)C#Cc2[nH]c3ccccc3c2C[C@@H](C(=O)O)NC(=O)[C@H](Cc2ccccc2)NC(=O)[C@H](C)NC(=O)[C@H](CO)NC1=O [Ac-K(EBX)-S-A-F-W-OH] has a ring closure, isolated yield (from CC(=O)N[C@@H](CCCCNC(=O)c1ccc(C#CI2OC(C(F)(F)F)(C(F)(F)F)c3ccccc32)cc1)C(=O)N[C@@H](CO)C(=O)N[C@@H](C)C(=O)N[C@@H](Cc1ccccc1)C(=O)N[C@@H](Cc1c[nH]c2ccccc12)C(=O)O, 28-membered ring) of 67%.

C[C@@H]1NC(=O)[C@H](CC(=O)O)NC(=O)CNC(=O)c2ccc(cc2)C#Cc2c(c3ccccc3n2C)C[C@@H](C(N)=O)NC(=O)[C@H](CCC(=O)O)NC(=O)CNC(=O)[C@H]([C@@H](C)O)NC(=O)[C@H](CCC(=O)O)NC1=O [EBX-G-D-A-E-T-G-E-W(1-Me)-NH2] showed a ring closure, isolated yield (from C[C@H](NC(=O)[C@H](CC(=O)O)NC(=O)CNC(=O)c1ccc(C#CI2OC(C(F)(F)F)(C(F)(F)F)c3ccccc32)cc1)C(=O)N[C@@H](CCC(=O)O)C(=O)N[C@H](C(=O)NCC(=O)N[C@@H](CCC(=O)O)C(=O)N[C@@H](Cc1cn(C)c2ccccc12)C(N)=O)[C@@H](C)O, 33-membered ring) of 61%.

Work on CC(=O)N[C@H]1CCCCNC(=O)c2ccc(cc2)C#Cc2[nH]c3ccccc3c2C[C@@H](C(=O)O)NC(=O)[C@H](Cc2ccccc2)NC(=O)[C@H](C)NC(=O)[C@H](CSSC(C)(C)C)NC1=O [Ac-K(EBX)-C(StBu)-A-F-W-OH] yielded a ring closure, isolated yield (from CC(=O)N[C@@H](CCCCNC(=O)c1ccc(C#CI2OC(C(F)(F)F)(C(F)(F)F)c3ccccc32)cc1)C(=O)N[C@@H](CSSC(C)(C)C)C(=O)N[C@@H](C)C(=O)N[C@@H](Cc1ccccc1)C(=O)N[C@@H](Cc1c[nH]c2ccccc12)C(=O)O, 28-membered ring) of 25%.
